According to PMC3856889 (Molecular cancer therapeutics, 2013):
Several values for one entry are separate records, joined by “and”; a condition that tells them apart may be missing. Equal values may be shown once.

Legend:
mice = details: cited from earlier work
H358 = experiment: MTT cytotoxicity assay, H358 NSCLC cells; assay type: cell-based, human; details: read-out: IC50 (µM) H358, 96-h incubation
[1] = cited from earlier work; for potential of tatpp-based reductive processes: vs. NHE at pH 7.0
[2] = tested on: acetyl cholinesterase (AChE); details: in vitro and in vivo; cited from earlier work
H226 = experiment: MTT cytotoxicity assay, H226 NSCLC cells; assay type: cell-based, human; details: read-out: IC50 (µM) H226, 96-h incubation
C57 BL/6 mice = experiment: Maximum tolerable dose, i.p. injection; assay type: in vivo, mouse; details: dose level causing no deaths, chloride salt
[3] = tested on: supercoiled plasmid pUC18 DNA; details: cited from earlier work
[4] = radiolabeled complex, in vivo; cited from earlier work
H358 cells = experiment: Non-hypoxic/hypoxic cytotoxicity, cell count with Trypan blue; assay type: cell-based, human; details: hypoxic 1 % O2 relative to normoxic, 24 h, Fig. 2A
[5] = Water solubility of the salts; details: chloride salts
NCI-60 panel = experiment: NCI-60 cell line one-dose screen; assay type: cell-based; details: single dose 10 µM
HUVEC [6] = experiment: Cytotoxicity towards normal HUVEC cells; assay type: cell-based, human
[7] = tested on: pAKT, pEGFR, PI3K, pRb, CDK4, cyclinB1, bcl2, Bax in H358 cells; experiment: Western blot of apoptotic, proliferative and tumor suppressor proteins; assay type: cell-based, human; details: H358, 10 µM, 24 h, Fig. 2D
HUVEC [8] = experiment: Apoptosis, caspase-cleavage and TUNEL, HUVEC; assay type: cell-based, human; details: 10 µM
HUVSMC [9] = experiment: Cytotoxicity towards normal HUVSMC cells; assay type: cell-based, human; details: read-out: IC50 for normal HUVSMC cells
[10] = tested on: supercoiled plasmid pUC18 DNA; experiment: DNA cleavage assay; assay type: biochemical
HUVSMC [11] = experiment: Apoptosis, HUVSMC; assay type: cell-based, human; details: similar treatment

Molecule	IC50 (H358)	IC50 (H226)	Maximum Tolerable Dose MTD (mg complex /kg mouse) (C57 BL/6 mice)	Maximum Tolerable Dose MTD µmol complex /kg mouse (C57 BL/6 mice)	further results
[Ru+2].c1cnc2c(c1)ccc1cccnc12.c1cnc2c(c1)ccc1cccnc12.c1cnc2c(c1)ccc1cccnc12 [1^2+, rac-[Ru(phen)3]^2+]	90 µM and 86.7 µM	90 µM and 92.8 µM	6.6 mg complex /kg mouse	9.1 µmol complex /kg mouse	minimum lethal dose (mice; iodo salt, mice, i.p. injection): 12 µmol/kg; toxicity when administered orally (mice; oral): non-toxic; reduction potential required [1]: ≤ −0.70 V; inhibition of acetyl cholinesterase (AChE) [2]: competitive inhibitor; DNA cleavage activity upon in situ reduction by glutathione [3]: nor do they exhibit any DNA cleavage activity
[106Ru+2].c1cnc2c(c1)ccc1cccnc12.c1cnc2c(c1)ccc1cccnc12.c1cnc2c(c1)ccc1cccnc12 [[^106Ru(phen)3]^2+]					recovery in the urine [4]: nearly all the complex was recovered in the urine
[Ru+2].c1ccc(-c2ccccn2)nc1.c1ccc(-c2ccccn2)nc1.c1ccc(-c2ccccn2)nc1 [rac-[Ru(bpy)3]^2+, reference compound]	209 ± 16 µM	198 ± 15 µM			
[Ru+2].c1cnc2c(c1)ccc1cccnc12.c1cnc2c(c1)ccc1cccnc12.c1cnc2c(c1)ccc1cccnc12 [Δ-1^2+, Δ-[Ru(phen)3]^2+]	64.8 ± 4.2 µM	93.6 ± 6.3 µM			
[Ru+2].c1cnc2c(c1)ccc1cccnc12.c1cnc2c(c1)ccc1cccnc12.c1cnc2c(c1)ccc1cccnc12 [Λ-1^2+, Λ-[Ru(phen)3]^2+]	61.4 ± 4.7 µM	116 ± 6.9 µM			
[Ru(phen)2(dppz)]^2+					potentiation of cytotoxicity under hypoxic conditions (H358 cells): neither of which showed significant potentiation
cis-Pt(NH3)2Cl2 [cisplatin, reference compound]					LD50 (mice; murine acute toxicity): ~ 57 µmol/kg; potentiation of cytotoxicity under hypoxic conditions (H358 cells): neither of which showed significant potentiation
mix-[(phen)2Ru(tatpp)Ru(phen)2]^4+ [4^4+]	15.2 ± 1.8 µM	16.2 ± 1.9 µM	66 mg complex /kg mouse	43 µmol complex /kg mouse	potential of tatpp-based reductive processes [1]: > −0.25 V; water solubility [5]: water soluble; DNA cleavage activity upon in situ reduction by glutathione [3]: effective DNA cleaving agent
mix-[(phen)2Ru(tpphz)Ru(phen)2]^4+ [2^4+]	41.8 ± 2.7 µM	51.1 ± 3.4 µM	3.3 mg complex /kg mouse	2.5 µmol complex /kg mouse	reduction potential required [1]: ≤ −0.70 V; water solubility [5]: water soluble; DNA cleavage activity upon in situ reduction by glutathione [3]: nor do they exhibit any DNA cleavage activity
rac-[(phen)2Ru(tatpp)]^2+ [3^2+]	13.2 ± 1.8 µM	12.5 ± 1.9 µM	67 mg complex /kg mouse	65 µmol complex /kg mouse	potential of tatpp-based reductive processes [1]: > −0.25 V; water solubility [5]: water soluble
ΔΔ-[(phen)2Ru(tatpp)Ru(phen)2]^4+ [ΔΔ-4^4+]	9.5 ± 1.2 µM	9.3 ± 0.9 µM	100 mg complex /kg mouse	64 µmol complex /kg mouse	mean growth percentage, whole panel (NCI-60 panel): 80%; difference in cytotoxicity, malignant vs normal cells (HUVEC [6]; malignant cell lines vs HUVEC and HUVSMC): ~10 fold; IC50 (HUVEC [6]; read-out: IC50 for normal HUVEC cells): ~100 µM; Bax level [7]: significantly increased; kinase signaling (pAKT, pEGFR, PI3K, pRb, CDK4, cyclinB1, bcl2) [7]: generalized decrease in kinase signaling; apoptosis in HUVEC (HUVEC [8]): did not show apoptosis; IC50 (HUVSMC [9]): ~100 µM; DNA cleavage, dependence on GSH ([10]; presence or absence of GSH, Fig. 3A): only show DNA cleavage when GSH is present; DNA cleavage when O2 is absent ([10]; with GSH, anaerobic vs aerobic): appreciably enhanced; apoptosis in HUVSMC (HUVSMC [11]): did not show apoptosis
ΔΛ-[(phen)2Ru(tatpp)Ru(phen)2]^4+ [ΔΛ-4^4+]	15.3 ± 1.5 µM	18.6 ± 1.5 µM	66 mg complex /kg mouse	43 µmol complex /kg mouse	
Λ-[(phen)2Ru(tatpp)]^2+ [Λ-3^2+]	13.8 ± 1.5 µM	13 ± 2 µM			
ΛΛ-[(phen)2Ru(tatpp)Ru(phen)2]^4+ [ΛΛ-4^4+]	16.7 ± 1 µM	17.3 ± 1.5 µM	66 mg complex /kg mouse	43 µmol complex /kg mouse	
